According to patent US12686673B2 (Blueprint Medicines Corporation, priority 2020, dated 2026):
Structures can show the parent of a compound that is named as a salt.

Key:
Type in all cases: cell-based
[1] = target: EGFR(D770_N771insSVD) expressing Ba/F3 stable cell line (Homo sapiens, UniProt P00533, DUP768-770, cells depend on it); assay: Cellular proliferation (Alamar Blue) assay, EGFR D770_N771insSVD Ba/F3; details: 72 hr, read-out: D770 IC50
Outline: (§1)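 72 hr Ba/F3 viability assay; cells in RPMI/10% FBS, compound dilutions down from 10 μM final, Alamar Blue detection.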

[2] = target: EGFR (A767_dupASV) expressing Ba/F3 stable cell line (Homo sapiens, UniProt P00533, DUP767-769, cells depend on it); assay: Cellular proliferation (Alamar Blue) assay, EGFR A767_dupASV Ba/F3; details: 72 hr, read-out: A767 IC50
Outline: as §1

A431 cells = assay: Cellular proliferation (Alamar Blue) assay, A431; details: Homo sapiens, A-431; A431 cells, Alamar Blue, 72 hr; read-out: A431 IC50
[3] = target: HER2 (A775_G776insYVMA) expressing Ba/F3 stable cell line (Homo sapiens, UniProt P04626, DUP772-775, cells depend on it); assay: Cellular proliferation (Alamar Blue) assay, HER2 A775_G776insYVMA Ba/F3; details: 72 hr, read-out: YVMA IC50
Outline: as §1

EGFR (A767_dupASV) expressing Ba/F3 stable cell line, sequence (P00533 with tags, fused parts or gaps DUP767-769): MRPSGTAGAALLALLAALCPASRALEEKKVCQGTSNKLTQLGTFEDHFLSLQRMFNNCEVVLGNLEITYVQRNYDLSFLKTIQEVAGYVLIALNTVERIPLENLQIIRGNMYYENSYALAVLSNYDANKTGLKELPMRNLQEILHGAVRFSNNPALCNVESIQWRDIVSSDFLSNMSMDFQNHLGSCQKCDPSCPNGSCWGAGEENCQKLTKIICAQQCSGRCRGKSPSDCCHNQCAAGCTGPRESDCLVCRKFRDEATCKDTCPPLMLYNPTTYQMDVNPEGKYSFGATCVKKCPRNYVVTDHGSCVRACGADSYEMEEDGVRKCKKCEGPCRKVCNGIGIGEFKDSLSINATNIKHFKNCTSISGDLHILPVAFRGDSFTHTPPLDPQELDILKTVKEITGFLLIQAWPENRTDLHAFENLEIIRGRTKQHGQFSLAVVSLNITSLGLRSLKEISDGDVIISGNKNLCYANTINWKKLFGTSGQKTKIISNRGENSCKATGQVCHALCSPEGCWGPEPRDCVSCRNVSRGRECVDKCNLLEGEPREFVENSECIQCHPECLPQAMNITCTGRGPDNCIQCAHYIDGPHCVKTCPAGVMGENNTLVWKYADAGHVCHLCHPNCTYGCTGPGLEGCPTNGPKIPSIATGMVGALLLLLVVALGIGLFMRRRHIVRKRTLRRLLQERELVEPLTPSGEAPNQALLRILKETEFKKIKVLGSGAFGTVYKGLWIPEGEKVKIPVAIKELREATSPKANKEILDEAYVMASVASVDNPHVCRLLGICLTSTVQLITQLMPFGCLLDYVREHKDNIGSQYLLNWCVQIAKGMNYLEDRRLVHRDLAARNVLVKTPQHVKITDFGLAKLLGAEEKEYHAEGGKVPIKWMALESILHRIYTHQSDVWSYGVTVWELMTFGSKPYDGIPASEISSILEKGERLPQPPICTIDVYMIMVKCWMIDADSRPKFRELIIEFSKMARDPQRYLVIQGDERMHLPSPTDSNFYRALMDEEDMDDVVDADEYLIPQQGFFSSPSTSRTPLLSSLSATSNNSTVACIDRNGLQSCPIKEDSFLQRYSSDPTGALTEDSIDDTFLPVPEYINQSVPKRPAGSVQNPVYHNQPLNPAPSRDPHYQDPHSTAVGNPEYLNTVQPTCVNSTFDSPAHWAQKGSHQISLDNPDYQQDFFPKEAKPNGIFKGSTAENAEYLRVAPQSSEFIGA
HER2 (A775_G776insYVMA) expressing Ba/F3 stable cell line, sequence (P04626 with tags, fused parts or gaps DUP772-775): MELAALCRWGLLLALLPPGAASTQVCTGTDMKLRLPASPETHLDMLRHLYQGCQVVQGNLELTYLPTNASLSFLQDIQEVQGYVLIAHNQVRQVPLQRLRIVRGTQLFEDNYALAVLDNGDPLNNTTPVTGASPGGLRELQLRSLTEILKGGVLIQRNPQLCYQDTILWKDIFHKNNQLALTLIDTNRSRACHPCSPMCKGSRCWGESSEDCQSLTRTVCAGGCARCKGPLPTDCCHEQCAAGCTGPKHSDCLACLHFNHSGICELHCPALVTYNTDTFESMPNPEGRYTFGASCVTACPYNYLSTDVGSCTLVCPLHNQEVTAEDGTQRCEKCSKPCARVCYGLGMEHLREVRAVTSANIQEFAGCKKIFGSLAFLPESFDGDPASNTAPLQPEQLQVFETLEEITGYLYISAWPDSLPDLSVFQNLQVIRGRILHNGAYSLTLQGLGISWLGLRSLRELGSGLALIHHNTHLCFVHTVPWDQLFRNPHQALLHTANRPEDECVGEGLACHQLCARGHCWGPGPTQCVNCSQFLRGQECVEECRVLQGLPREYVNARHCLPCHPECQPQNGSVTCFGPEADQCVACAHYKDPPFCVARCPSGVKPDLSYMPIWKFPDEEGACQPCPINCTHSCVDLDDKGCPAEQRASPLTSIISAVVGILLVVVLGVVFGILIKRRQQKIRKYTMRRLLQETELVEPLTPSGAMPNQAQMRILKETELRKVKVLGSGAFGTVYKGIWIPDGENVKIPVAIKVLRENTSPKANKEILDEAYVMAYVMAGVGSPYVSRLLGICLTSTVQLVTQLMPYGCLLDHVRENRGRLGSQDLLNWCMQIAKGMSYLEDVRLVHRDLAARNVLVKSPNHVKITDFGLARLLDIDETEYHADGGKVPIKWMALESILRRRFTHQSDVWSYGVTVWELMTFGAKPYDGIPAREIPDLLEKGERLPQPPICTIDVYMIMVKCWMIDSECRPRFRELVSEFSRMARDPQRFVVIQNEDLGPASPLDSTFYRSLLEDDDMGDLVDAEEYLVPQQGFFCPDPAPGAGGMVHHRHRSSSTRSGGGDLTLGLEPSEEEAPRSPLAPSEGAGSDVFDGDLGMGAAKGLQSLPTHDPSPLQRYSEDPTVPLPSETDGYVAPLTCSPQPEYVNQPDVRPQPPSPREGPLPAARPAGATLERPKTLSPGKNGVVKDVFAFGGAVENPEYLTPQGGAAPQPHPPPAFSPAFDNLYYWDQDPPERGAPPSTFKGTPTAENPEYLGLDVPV
EGFR(D770_N771insSVD) expressing Ba/F3 stable cell line, sequence (P00533 with tags, fused parts or gaps DUP768-770): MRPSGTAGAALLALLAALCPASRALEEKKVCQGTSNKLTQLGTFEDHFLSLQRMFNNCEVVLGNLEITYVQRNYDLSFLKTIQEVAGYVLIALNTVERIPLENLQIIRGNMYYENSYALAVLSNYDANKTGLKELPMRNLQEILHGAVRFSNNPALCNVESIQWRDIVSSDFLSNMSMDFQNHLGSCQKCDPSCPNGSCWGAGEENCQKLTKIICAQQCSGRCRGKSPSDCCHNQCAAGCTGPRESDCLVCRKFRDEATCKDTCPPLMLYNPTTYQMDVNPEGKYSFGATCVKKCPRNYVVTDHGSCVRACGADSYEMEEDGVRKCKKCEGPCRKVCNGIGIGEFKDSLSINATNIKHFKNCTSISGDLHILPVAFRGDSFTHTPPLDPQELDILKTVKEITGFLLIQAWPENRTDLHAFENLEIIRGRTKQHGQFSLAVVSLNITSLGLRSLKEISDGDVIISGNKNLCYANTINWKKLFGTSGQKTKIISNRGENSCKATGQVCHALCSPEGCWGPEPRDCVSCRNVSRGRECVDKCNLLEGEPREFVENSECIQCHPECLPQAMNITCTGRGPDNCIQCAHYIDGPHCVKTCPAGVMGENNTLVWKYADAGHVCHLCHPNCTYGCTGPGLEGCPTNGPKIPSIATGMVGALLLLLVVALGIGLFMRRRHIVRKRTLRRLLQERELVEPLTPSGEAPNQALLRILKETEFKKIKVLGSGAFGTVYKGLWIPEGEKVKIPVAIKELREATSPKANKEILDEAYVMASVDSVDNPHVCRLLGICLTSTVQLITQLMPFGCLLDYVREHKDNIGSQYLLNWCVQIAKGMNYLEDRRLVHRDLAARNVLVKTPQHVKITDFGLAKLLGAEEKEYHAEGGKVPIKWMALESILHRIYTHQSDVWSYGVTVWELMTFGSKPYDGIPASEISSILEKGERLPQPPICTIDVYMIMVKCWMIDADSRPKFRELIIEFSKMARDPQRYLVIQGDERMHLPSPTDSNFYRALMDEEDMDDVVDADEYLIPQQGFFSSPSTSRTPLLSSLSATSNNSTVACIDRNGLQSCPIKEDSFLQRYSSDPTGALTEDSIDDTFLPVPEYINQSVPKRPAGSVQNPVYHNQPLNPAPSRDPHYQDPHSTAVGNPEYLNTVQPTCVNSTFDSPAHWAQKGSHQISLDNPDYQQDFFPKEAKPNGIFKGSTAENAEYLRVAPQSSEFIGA

Structure (SMILES)	GI50 [1] [µM]	GI50 [2] [µM]	IC50 (A431 cells) [µM]	GI50 [3] [µM]
C=CC(=O)Nc1ccc(OC)c(Nc2nc(Nc3cnn(C)c3)ncc2Cl)c1 [Compound 13, N-(3-((5-chloro-2-((1-methyl-1H-pyrazol-4-yl)amino)pyrimidin-4-yl)amino)-4-methoxyphenyl)acrylamide]	> 10	> 10	> 10	> 10
C=CC(=O)Nc1ccc(F)c(Nc2nc(Nc3cnn(CCO)c3)ncc2Cl)c1 [Compound 15, N-(3-((5-chloro-2-((1-(2-hydroxyethyl)-1H-pyrazol-4-yl)amino)pyrimidin-4-yl)amino)-4-fluorophenyl)acrylamide]	0.373	0.371	4.22	0.543
CN(C)C/C=C/C(=O)Nc1ccc(F)c(Nc2nc(Nc3cnn(CCO)c3)ncc2Cl)c1 [Compound 16, (E)-N-(3-((5-chloro-2-((1-(2-hydroxyethyl)-1H-pyrazol-4-yl)amino)pyrimidin-4-yl)amino)-4-fluorophenyl)-4-(dimethylamino)but-2-enamide]	9.06	8.84	9.04	1.7
CN(C)C/C=C/C(=O)Nc1cccc(Nc2nc(Nc3cnn(C)c3)ncc2CNc2ccccc2)c1 [Compound 17, (E)-4-(dimethylamino)-N-(3-((2-((1-methyl-1H-pyrazol-4-yl)amino)-5-((phenylamino)methyl)pyrimidin-4-yl)amino)phenyl)but-2-enamide]	1.53	1.02	7.74	1.88
C=CC(=O)Nc1cccc(Nc2nc(Nc3cnn(C)c3)ncc2CN(C(C)=O)c2ccccc2)c1 [Compound 18]	> 10	7.16	> 10	> 10
C=CC(=O)Nc1cccc(Nc2nc(Nc3cnn(C)c3)ncc2CN(C(C)=O)C(C)c2ccccc2)c1 (stereo not shown) [Compound 19, N-(3-((2-((1-methyl-1H-pyrazol-4-yl)amino)-5-((N-(1-phenylethyl)acetamido)methyl)pyrimidin-4-yl)amino)phenyl)acrylamide]	> 10	> 10	> 10	> 10
C=CC(=O)Nc1cccc(Nc2nc(Nc3cnn(C)c3)ncc2NS(=O)(=O)c2ccccc2)c1 [Compound 29, N-(3-((2-((1-methyl-1H-pyrazol-4-yl)amino)-5-(phenylsulfonamido)pyrimidin-4-yl)amino)phenyl)acrylamide]	> 10	> 10	> 10	> 10
C=CC(=O)Nc1ccc(F)c(Nc2nc(Nc3ccn(C)n3)ncc2Cl)c1 [Compound 30, N-(3-((5-chloro-2-((1-methyl-1H-pyrazol-3-yl)amino)pyrimidin-4-yl)amino)-4-fluorophenyl)acrylamide]	> 10	9.63	> 10	2.64
C=CC(=O)Nc1ccc(F)c(Nc2nc(Nc3ccnn3C)ncc2Cl)c1 [Compound 31, N-(3-((5-chloro-2-((1-methyl-1H-pyrazol-5-yl)amino)pyrimidin-4-yl)amino)-4-fluorophenyl)acrylamide]	9.96	9.87	9.8	5.18
C=CC(=O)Nc1cccc(Nc2nc(Nc3cnn(C)c3)ncc2NCc2ccccc2)c1 [Compound 32, N-(3-((5-(benzylamino)-2-((1-methyl-1H-pyrazol-4-yl)amino)pyrimidin-4-yl)amino)phenyl)acrylamide]	0.824	0.885	> 10	1.61
CN(C)C/C=C/C(=O)Nc1cccc(Nc2nc(Nc3cnn(C)c3)ncc2NCc2ccccc2)c1 [Compound 33, (E)-N-(3-((5-(benzylamino)-2-((1-methyl-1H-pyrazol-4-yl)amino)pyrimidin-4-yl)amino)phenyl)-4-(dimethylamino)but-2-enamide]	2.98	4.07	4.01	3.03
CC(NC(=O)c1cnc(Nc2cnn(C)c2)nc1Nc1cccc(NC(=O)/C=C/CN(C)C)c1)c1ccccc1 (stereo not shown) [Compound 35, (E)-4-((3-(4-(dimethylamino)but-2-enamido)phenyl)amino)-2-((1-methyl-1H-pyrazol-4-yl)amino)-N-(1-phenylethyl)pyrimidine-5-carboxamide]	> 10	> 10	> 10	> 10
C=CC(=O)Nc1ccc(F)c(Nc2nc(Nc3cnn(C)c3)ncc2C(F)(F)F)c1 [Compound 36, N-(4-fluoro-3-((2-((1-methyl-1H-pyrazol-4-yl)amino)-5-(trifluoromethyl)pyrimidin-4-yl)amino)phenyl)acrylamide]	0.357	0.332	8.15	0.416
C=CC(=O)Nc1cccc(Nc2nc(Nc3cnn(C)c3)ncc2C(C)N(Cc2ccccc2)C(C)=O)c1 (stereo not shown) [Compound 47, N-(3-((5-(1-(N-benzylacetamido)ethyl)-2-((1-methyl-1H-pyrazol-4-yl)amino)pyrimidin-4-yl)amino)phenyl)acrylamide]	8.85	7.08	> 10	> 10
C=CC(=O)Nc1cccc(Nc2nc(Nc3cnn(C)c3)ncc2CN(Cc2ccccc2)C(C)=O)c1 [Compound 48, N-(3-((5-((N-benzylacetamido)methyl)-2-((1-methyl-1H-pyrazol-4-yl)amino)pyrimidin-4-yl)amino)phenyl)acrylamide]	8.8	> 10	> 10	> 10
C=CC(=O)Nc1ccc(F)c(Nc2nc(Nc3cnn(C)c3)ncc2NC(=O)c2ccccc2)c1 [Compound 50, N-(4-((5-acrylamido-2-fluorophenyl)amino)-2-((1-methyl-1H-pyrazol-4-yl)amino)pyrimidin-5-yl)benzamide]	1.73	1.47	> 10	8.62
C=CC(=O)Nc1ccc(F)c(Nc2nc(Nc3cnn(C)c3)ncc2NS(=O)(=O)c2ccccc2)c1 [Compound 51, N-(4-fluoro-3-((2-((1-methyl-1H-pyrazol-4-yl)amino)-5-(phenylsulfonamido)pyrimidin-4-yl)amino)phenyl)acrylamide]	> 10	> 10	> 10	> 10
C=CC(=O)Nc1ccc(F)c(Nc2nc(Nc3cnn(C)c3)ncc2-c2ccc(N3CCOCC3)nc2)c1 [Compound 55, N-[4-fluoro-3-({2-[(1-methyl-1H-pyrazol-4-yl)amino]-5-[6-(morpholin-4-yl)pyridin-3-yl]pyrimidin-4-yl}amino)phenyl] prop-2-enamide]	0.945	0.492	> 10	1.87
C=CC(=O)Nc1ccc(F)c(Nc2nc(Nc3cnn(C)c3)ncc2-c2cccc(NC(C)=O)c2)c1 [Compound 59, N-(3-((5-(3-acetamidophenyl)-2-((1-methyl-1H-pyrazol-4-yl)amino)pyrimidin-4-yl)amino)-4-fluorophenyl)acrylamide]	> 10	> 10	> 10	≥ 10
C=CC(=O)Nc1ccc(F)c(Nc2nc(Nc3cnn(C)c3)ncc2-c2cccc(C(=O)NC)c2)c1 [Compound 60, 3-(4-((5-acrylamido-2-fluorophenyl)amino)-2-((1-methyl-1H-pyrazol-4-yl)amino)pyrimidin-5-yl)-N-methylbenzamide]	7.94	7.65	> 10	6.58
C=CC(=O)Nc1ccc(F)c(Nc2nc(Nc3cnn(C)c3)ncc2-c2ccc(C#N)cc2)c1 [Compound 62, N-(3-((5-(4-cyanophenyl)-2-((1-methyl-1H-pyrazol-4-yl)amino)pyrimidin-4-yl)amino)-4-fluorophenyl)acrylamide]	0.323	0.307	> 10	2.59
C=CC(=O)Nc1ccc(F)c(Nc2nc(Nc3cnn(C)c3)ncc2-c2ccc(C(C)(C)C)cc2)c1 [Compound 76, N-(3-((5-(4-(tert-butyl)phenyl)-2-((1-methyl-1H-pyrazol-4-yl)amino)pyrimidin-4-yl)amino)-4-fluorophenyl)acrylamide trifluoroacetate]	0.265	0.308	0.156	3.15
C=CC(=O)Nc1ccc(F)c(Nc2nc(Nc3cnn(C)c3)ncc2-c2ccc3c(ccn3C)c2)c1 [Compound 77, N-(4-fluoro-3-((5-(1-methyl-1H-indol-5-yl)-2-((1-methyl-1H-pyrazol-4-yl)amino)pyrimidin-4-yl)amino)phenyl)acrylamide trifluoroacetate]	0.299	0.774	1.03	2.75
C=CC(=O)Nc1ccc(F)c(Nc2nc(Nc3cnn(C)c3)ncc2-c2cccnc2OC)c1 [Compound 79, N-(4-fluoro-3-((5-(2-methoxypyridin-3-yl)-2-((1-methyl-1H-pyrazol-4-yl)amino)pyrimidin-4-yl)amino)phenyl)acrylamide]	0.934	0.887	> 10	0.896
C=CC(=O)Nc1ccc(F)c(Nc2nc(Nc3cnn(C)c3)ncc2-c2ccc(OC)nc2)c1 [Compound 86, N-(4-fluoro-3-((5-(6-methoxypyridin-3-yl)-2-((1-methyl-1H-pyrazol-4-yl)amino)pyrimidin-4-yl)amino)phenyl)acrylamide]	0.036	0.039	0.049	0.185
